Experimental data: patent US7320785B2, “Compositions and methods for modulation of DARPP-32 phosphorylation” (The Rockefeller University, priority 2001, dated 2008)
Read-outs that look alike come from different tables or passages of the source. Marks after values point to notes of the source that are not given here.

What was measured:
[1] = test system: DARPP-32; experiment: DARPP-32 phosphorylation in mouse brain slices, immunoblotting with phosphorylation state-specific antibodies; details: for phospho-Thr34 DARPP-32 / phospho-Thr75 DARPP-32: prefrontal cortex slices, n=6; for phospho-Thr34 DARPP-32: 2 min of incubation; for phospho-Thr75 DARPP-32: 10 min of incubation
[2] = test system: DARPP-32; details: cited from earlier work
[3] = pNPP hydrolysis by recombinant PP2C isoforms (phosphatase assay); format: biochemical, rat; details: for Vmax of pNPP hydrolysis, Mn^2+ compared to Mg^2+ (higher): 20 mM Mn^2+ versus 20 mM Mg^2+; for Vmax / kcat / Km: pNPP as substrate; for Km: 37° C.
Method: The activity of PP2C isoforms using pNPP as substrate was assayed as previously described (Brumel et al., 1997). […] The reaction was stopped by addition of 1 ml of 0.1 M NaOH, and the initial rate of p-nitrophenol release was determined spectrophotometrically at 405 nm (using a molar extinction coefficient of 18 000 M−1 cm−1).
(§1) Kinetic parameters (Km and Vmax) were determined from Lineweaver-Burk plots.
Legend Table 7. Enzymatic activities of PP2C isoforms assayed using pNPP as substrate. Phosphatase activity was measured using pNPP as substrate by the change in absorbance at 405 nm. Km and Vmax values were calculated from Lineweaver-Burk plots of the data.

[4] = test system: phospho-Ser137-DARPP-32; experiment: Dephosphorylation of phospho-Ser137-DARPP-32 by recombinant PP2C isoforms; format: biochemical, rat; details: [^32P]phospho-Ser137 DARPP-32 as substrate; in the presence of 10 mM Mn^2+
Method: The activity of PP2C isoforms using ^32P-DARPP (phosphorylated at Ser137) was assayed at 37° C. in a reaction mixture containing 25 mM Tris-HCl, pH 7.5, 10 mM MnCl2, 1% BSA, and […] substrate, in a total volume of […]. Reactions were stopped by addition of […] of 50% trichloroacetic acid. Samples were then incubated on ice for 30 min and centrifuged at 10,000 g for 10 min at 4° C. Radioactivity recovered in the supernatant was measured by Cerenkov counting in a scintillation counter (Beckman).
as §1
Legend Table 8. Enzymatic activities of PP2C isoforms assayed using [^32P]phospho-Ser137 DARPP-32 as substrate. Phosphatase activity was measured by the release of ^32P, and Km and Vmax values were calculated from Lineweaver-Burk plots of the data.

[5] = Mus musculus, 2 min, read-out: Percent Phospho-Ser137
[6] = Mus musculus, 2 min, read-out: Percent Phospho-Thr34
[7] = Mus musculus, 10 min, read-out: Percent Phospho-Thr75
[8] = neostriatal slices, compound at 100 μM, 2 min incubation, vehicle control = 100
[9] = neostriatal slices, compound at 100 μM, 10 min incubation, vehicle control = 100
[10] = neostriatal slices, compound at 10 μM, 2 min incubation
[11] = neostriatal slices, compound at 10 μM, 10 min incubation
[12] = neostriatal slices, compound at 300 μM, 2 min incubation

Molecule: Clc1cccc(SC2CCNCC2)n1 [Anpirtoline]
- activity at 100 µM [1, 5]: 93%
- activity at 100 µM [1, 6]: 86%
- activity at 100 µM [1, 7]: 102%

Molecule: CN1CC[C@]23c4c5ccc(O)c4O[C@H]2[C@@H](O)C=C[C@H]3[C@H]1C5 [morphine]
- frontal cortex levels of DARPP-32 immunoreactivity ([2]; rat, in vivo): without effects

Molecule: COc1ccc2[nH]cc(CCN)c2c1 [5-MT, 5-methoxytryptamine]
- activity at 100 µM [1, 6]: 261 ± 31%
- activity at 100 µM [1, 7]: 76 ± 7%
- Percent Phospho-Thr34 [1, 8]: 261(31.5)* Percent
- Percent Phospho-Thr75 [1, 9]: 76(7.6)* Percent

Molecule: O=C(CCCN1CCC(O)(c2ccc(Cl)cc2)CC1)c1ccc(F)cc1 [haloperidol]
- frontal cortex levels of DARPP-32 immunoreactivity ([2]; chronic administration in rats): without effects

Molecule: CNc1cc(NS(=O)(=O)c2ccc(N)cc2)nc(NC)n1 [Ro 07-6790]
- Percent Phospho-Ser137 [1, 10]: 105(7.3) Percent
- Percent Phospho-Thr34 [1, 10]: 90(8.7) Percent
- Percent Phospho-Thr75 [1, 11]: 101(12.5) Percent

Molecule: NC1CCN(c2cccc(Cl)n2)CC1 [SR 57227]
- Percent Phospho-Ser137 [1, 8]: 105(9.6) Percent
- Percent Phospho-Thr34 [1, 8]: 78(3.5)* Percent
- Percent Phospho-Thr75 [1, 9]: 88(4.8) Percent

Molecule: C=CCN1CCc2c(cc(O)c(O)c2Cl)C(c2ccccc2)C1 (stereo not shown) [SKF 82958]
- activity at 10 µM [1, 5]: 115%
- activity at 10 µM [1, 6]: 552%
- activity at 10 µM [1, 7]: 65%

Molecule: CCN(CC)CCOC(=O)c1cc(Cl)c(N)cc1OC [SDZ205,557]
- Percent Phospho-Ser137 [1, 10]: 102(8.8) Percent
- Percent Phospho-Thr34 [1, 10]: 94(16.7) Percent
- Percent Phospho-Thr75 [1, 11]: 103(17.5) Percent

Molecule: CCN1CCC[C@H]1CNC(=O)c1c(O)c(Cl)cc(Cl)c1OC [Raclopride]
- activity at 10 µM [1, 5]: 101%
- activity at 10 µM [1, 6]: 150%
- activity at 10 µM [1, 7]: 85%

Molecule: O=C(c1ccc(F)cc1)C1CCN(CCn2c(=O)[nH]c3ccccc3c2=O)CC1 [Ketanserin]
- activity at 10 µM [1, 5]: 97%
- activity at 10 µM [1, 6]: 94%
- activity at 10 µM [1, 7]: 105%

Molecule: N[C@@H]1C[C@H]1c1ccccc1 (racemic) [tranylcypromine]
- frontal cortex levels of DARPP-32 immunoreactivity ([2]; rat, in vivo): significant increases

Molecule: NCCNS(=O)(=O)c1ccc(Cl)c2ccncc12 [CK1-7]
- Percent Phospho-Ser137 [1, 8]: 87(4.0)* Percent
- Percent Phospho-Thr34 [1, 8]: 102(11.5) Percent
- Percent Phospho-Thr75 [1, 9]: 96(10.0) Percent

Molecule: CN1CCN(C2=Nc3cc(Cl)ccc3Nc3ccccc32)CC1 [Clozapine]
- activity at 10 µM [1, 5]: 105%
- activity at 10 µM [1, 6]: 124%
- activity at 10 µM [1, 7]: 101%

Molecule: COc1ccc2c(c1)CC[C@@H]1[C@@H]2CC[C@]2(C)[C@@H](NCCCCCCN3C(=O)C=CC3=O)CC[C@@H]12 [U-73122]
- Percent Phospho-Ser137 [1, 10]: 86(6.2)* Percent
- Percent Phospho-Thr34 [1, 10]: 117(10.9) Percent
- Percent Phospho-Thr75 [1, 11]: 90(6.6) Percent

Molecule: Nc1ncnc2c1ncn2[C@@H]1O[C@@H]2CO[P@@](O)(=S)O[C@H]2[C@H]1O [RpcAMPs]
- Percent Phospho-Ser137 [1, 12]: 108(10.0) Percent
- Percent Phospho-Thr34 [1, 12]: 88(13.1) Percent
- Percent Phospho-Thr75 ([1]; neostriatal slices, compound at 300 μM, 10 min incubation): 105(7.2) Percent

Molecule: COc1cc(CC(C)N)c(OC)cc1I.Cl (racemic) [DOI, (±)-2,5-dimethoxy-4-iodoamphetamine hydrochloride; (±)-1-(2,5 dimethoxy-4-iodophenyl)-2-aminopropane]
- Percent Phospho-Ser137 [1, 8]: 158(8.3)* Percent
- Percent Phospho-Thr34 [1, 8]: 144(16.7) Percent
- Percent Phospho-Thr75 [1, 9]: 105(4.5) Percent
- EC50 ([1]; read-out: EC50 at phospho-Ser137 DARPP-32, neostriatal slices): 18.2 µM

Molecule: CCc1[nH]c2ccc(OC)cc2c1CCN(C)C [EMDT, 2-ethyl-5-methoxy-N,N-dimethyltryptamine]
- EC50 ([1]; Mus musculus, 2 min, read-out: EC50 for effect on DARPP-32 phosphorylation at Thr34): 20.5 µM
- EC50 ([1]; Mus musculus, 10 min, read-out: EC50 for effect on DARPP-32 phosphorylation at Thr75): 27.4 µM
- phospho-Thr34 DARPP-32 [1]: 185±19%
- phospho-Thr75 DARPP-32 [1]: 80±17%

Molecule: NC1=N[C@H](O)[C@H]2[C@H]3O[C@]4(O)O[C@@H]([C@@H](O)[C@@]2(N1)[C@@H]4O)[C@]3(O)CO [Tetrodotoxin]
- Percent Phospho-Ser137 [1]: 98(12.5) Percent
- Percent Phospho-Thr34 [1]: 91.8(5.8) Percent
- Percent Phospho-Thr75 [1]: 103(3.5) Percent

Molecule: c1ccc2sc(N3CCN(Cc4ccc5c(c4)OCO5)CC3)nc2c1 [PPB, 2-[1-(4-Piperonyl)piperazinyl]benzothiazole]
- Percent Phospho-Ser137 [1, 8]: 108(2.0) Percent
- Percent Phospho-Thr34 [1, 8]: 218(36.1)* Percent
- Percent Phospho-Thr75 [1, 9]: 72(8.8)* Percent
- phospho-Thr34 DARPP-32 [1]: 203±15%
- phospho-Thr75 DARPP-32 [1]: 84±4%

Molecule: CN1CCc2cc(Cl)c(O)cc2[C@@H](c2ccccc2)C1 [SCH23390]
- activity at 10 µM [1, 6]: 76%
- activity at 10 µM [1, 7]: 109%

B1: PP2Cb: recombinant his-tagged beta isoform of protein phosphatase 2C cloned from rat striatum (protein, UniProt P35815 2-390, looked up)
Protein phosphatase 1B: GAFLDKPKTEKHNAHGAGNGLRYGLSSMQGWRVEMEDAHTAVVGIPHGLEDWSFFAVYDGHAGSRVANYCSTHLLEHITTNEDFRAADKSGFALEPSVENVKTGIRTGFLKIDEYMRNFSDLRNGMDRSGSTAVGVMISPTHIYFINCGDSRAVLCRNGQVCFSTQDHKPCNPMEKERIQNAGGSVMIQRVNGSLAVSRALGDYDYKCVDGKGPTEQLVSPEPEVYEILRAEEDEFVVLACDGIWDVMSNEELCEFVNSRLEVSDDLENVCNWVVDTCLHKGSRDNMSIVLVCFANAPKVSDEAVKRDLELDKHLESRVEEIMQKSGEEGMPDLAHVMRILSAENIPNLPPGGGLAGKRNVIEAVYSRLNPNKDNDGGAGDLEDSLVAL
modifications: His tag
notes: recombinant his-tagged beta isoform of protein phosphatase 2C cloned from rat striatum
- Vmax of pNPP hydrolysis, Mn^2+ compared to Mg^2+ (higher) [3]: approximately 50 fold
- Vmax ([3]; in the presence of 20 mM Mg^2+): 0.20 µmol/mg/min
- kcat ([3]; in the presence of 20 mM Mg^2+): 0.16 s⁻¹
- Km ([3]; in the presence of 20 mM Mg^2+): 3200 µM
- Vmax ([3]; in the presence of 20 mM Mn^2+): 10.72 µmol/mg/min
- kcat ([3]; in the presence of 20 mM Mn^2+): 8.42 s⁻¹
- Km ([3]; in the presence of 20 mM Mn^2+): 2290 µM
- Km [4]: 25.3 µM
- Vmax [4]: 0.99 µmol/mg/min
- kcat [4]: 0.78 s⁻¹

B2: PP2Cg: recombinant his-tagged gamma isoform of protein phosphatase 2C cloned from rat striatum (protein)
chain: MGAYLSQPNTVKCSGDGVGAPRLPLPYGFSAMQGWRVSMEDAHNCIPELDNETAMFSVYDGHGGEEVALYCAKYLPDIIKDQKAYKEGKLQKALQDAFLAIDAKLTTDEVIKELAQIAGRPTEDEDDKEKVADEDDVDNEEAALLHEEATMTIEELLTRYGQNCQKGPPHTKSGTGIGDEPEPQGLNGEAGPEDPSRETPSQENGPTAKGHTGPSSNSDHGTEAGQIGEPGTATGEAGPSCSSASDKLPRVAKSKFFEDSEDESDEVEEEEDDSEECSEDEDGYSSEEAENEEDEDDTEEAEEDDDEEMMVPGMEGKEEPGSDSGTTAVVALIRGKQLIVANAGDSRCVVSEAGKALDMSYDHKPEDEVELARIKNAGGKVTMDGRVNGGLNLSRAIGDHFYKRNKNLPPQEQMISALPDIKVLTLTDDHEFMVIACDGIWNVMSSQEVVDFIQSKISQRDENGELRLLSSIVEELLDQCLAPDTSGDGTGCDNMTCIIICFKPRNTVELQPESGKRKLEEALSTEGAEENGNSDKKKAKRD
modifications: left off: small tags and cut ends
notes: recombinant his-tagged gamma isoform of protein phosphatase 2C cloned from rat striatum
- Vmax of pNPP hydrolysis, Mn^2+ compared to Mg^2+ (higher) [3]: 15 fold
- Km of pNPP hydrolysis, Mn^2+ compared to Mg^2+ (lower) ([3]; Mn^2+ substitutes Mg^2+): 24 fold
- Vmax ([3]; in the presence of 20 mM Mg^2+): 0.09 µmol/mg/min
- kcat ([3]; in the presence of 20 mM Mg^2+): 0.094 s⁻¹
- Km ([3]; in the presence of 20 mM Mg^2+): 12800 µM
- Vmax ([3]; in the presence of 20 mM Mn^2+): 1.29 µmol/mg/min
- kcat ([3]; in the presence of 20 mM Mn^2+): 1.35 s⁻¹
- Km ([3]; in the presence of 20 mM Mn^2+): 520 µM
- Km [4]: 7 µM
- Vmax [4]: 0.31 µmol/mg/min
- kcat [4]: 0.32 s⁻¹
